In ChEMBL document CHEMBL1155157, “Fosamprenavir plus ritonavir increases plasma ketoconazole and ritonavir exposure, while amprenavir exposure remains unchanged” (Antimicrob Agents Chemother, 2007):

What was measured:
[1] = Cmax in human plasma at 200 mg qd for 4 days; type: ADME, organism-based; design: dose 200 mg
[2] = AUC (0 to tau) in human plasma at 200 mg qd for 4 days; type: ADME, organism-based

## CC(=O)N1CCN(c2ccc(OCC3COC(Cn4ccnc4)(c4ccc(Cl)cc4Cl)O3)cc2)CC1 (configuration not stated) [KETOCONAZOLE]
[1]
  Cmax: 3770 ng/mL
[2]
  AUC tau at 96 h: 16600 ng·h/mL
